From ChEMBL document CHEMBL3351804, “Development of 2-aryl substituted quinazolin-4(3H)-one, pyrido[4,3-d]pyrimidin-4(3H)-one and pyrido[2,3-d]pyrimidin-4(3H)-one derivatives as microsomal prostaglandin E(2) synthase-1 inhibitors” (Bioorg Med Chem Lett, 2014) come the findings set out here.

The target of data set [1] is T1, Prostaglandin E synthase (Homo sapiens, UniProt O14684).
T1 sequence (O14684 whole entry): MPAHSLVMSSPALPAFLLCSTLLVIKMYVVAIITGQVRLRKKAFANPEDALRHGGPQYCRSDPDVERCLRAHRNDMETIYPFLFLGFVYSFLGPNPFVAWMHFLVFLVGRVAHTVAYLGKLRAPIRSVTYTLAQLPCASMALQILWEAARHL
Kind of data set: Inhibition of mPGES-1 in human A549 cells assessed as inhibition of IL-1beta-induced PGE2 production incubated for 30 mins prior to IL-1beta challenge measured after 18 to 24 hrs. The class given is cell-based.

For data set [2], the target named is T1, Prostaglandin E synthase. Kind of data set: Inhibition of mPGES-1 in human whole blood assessed as inhibition of LPS-induced PGE2 production after overnight incubation.
Data set [3] has as its target Prostaglandin G/H synthase 1 (Homo sapiens) (UniProt P23219). Briefly: Inhibition of COX1 in human U937 cells at 10 uM. The conditions noted are these: U-937. In kind it is cell-based.
The target of data set [4] is T2, Prostaglandin G/H synthase 2 (Homo sapiens) (UniProt P35354).
T2 sequence (whole entry): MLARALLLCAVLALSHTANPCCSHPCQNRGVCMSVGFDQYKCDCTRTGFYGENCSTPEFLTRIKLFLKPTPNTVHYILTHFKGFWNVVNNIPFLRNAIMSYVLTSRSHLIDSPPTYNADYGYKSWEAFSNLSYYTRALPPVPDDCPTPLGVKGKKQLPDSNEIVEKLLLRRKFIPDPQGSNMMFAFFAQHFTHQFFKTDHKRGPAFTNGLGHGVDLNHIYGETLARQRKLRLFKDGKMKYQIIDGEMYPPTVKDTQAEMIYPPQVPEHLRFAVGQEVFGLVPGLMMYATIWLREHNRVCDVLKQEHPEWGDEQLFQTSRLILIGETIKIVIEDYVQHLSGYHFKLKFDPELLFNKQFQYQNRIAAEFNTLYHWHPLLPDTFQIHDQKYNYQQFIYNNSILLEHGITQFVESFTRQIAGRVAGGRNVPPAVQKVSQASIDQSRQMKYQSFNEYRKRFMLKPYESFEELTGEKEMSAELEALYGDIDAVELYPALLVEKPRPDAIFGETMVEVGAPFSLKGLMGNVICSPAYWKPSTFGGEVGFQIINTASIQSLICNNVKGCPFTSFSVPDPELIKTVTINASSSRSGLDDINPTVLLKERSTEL
Briefly: Inhibition of recombinant COX2 (unknown origin) at 10 uM.

The target of data set [5] is Prostaglandin E synthase 2 (Homo sapiens) (UniProt Q9H7Z7). Kind of data set: Inhibition of recombinant mPGES-2 (unknown origin) at 10 uM.
Prostaglandin E synthase 2 (Homo sapiens), sequence (Q9H7Z7 whole entry): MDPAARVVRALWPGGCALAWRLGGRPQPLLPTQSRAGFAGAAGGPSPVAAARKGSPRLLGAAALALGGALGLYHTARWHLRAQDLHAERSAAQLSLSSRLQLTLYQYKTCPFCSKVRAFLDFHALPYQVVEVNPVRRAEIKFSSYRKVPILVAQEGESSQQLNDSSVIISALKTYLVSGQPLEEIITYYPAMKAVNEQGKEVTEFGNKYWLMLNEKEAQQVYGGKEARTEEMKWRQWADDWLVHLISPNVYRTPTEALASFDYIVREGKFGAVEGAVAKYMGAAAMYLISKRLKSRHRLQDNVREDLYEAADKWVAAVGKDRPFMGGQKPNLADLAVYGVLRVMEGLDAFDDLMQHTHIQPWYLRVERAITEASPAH
Data set [6] deals with T3, Prostaglandin E synthase 3 (Homo sapiens) (UniProt Q15185).
T3 sequence (whole entry): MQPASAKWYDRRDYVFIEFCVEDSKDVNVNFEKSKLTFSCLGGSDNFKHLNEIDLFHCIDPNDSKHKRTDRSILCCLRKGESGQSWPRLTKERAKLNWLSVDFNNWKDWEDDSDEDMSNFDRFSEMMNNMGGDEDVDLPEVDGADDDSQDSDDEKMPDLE
Briefly: Inhibition of recombinant cPGES (unknown origin) at 10 uM.

For data set [7], the target named is Prostaglandin F2-alpha receptor (Homo sapiens) (UniProt P43088). Briefly: Induction of recombinant PGF2-alpha (unknown origin) at 10 uM.
Prostaglandin F2-alpha receptor (Homo sapiens), sequence (P43088 whole entry): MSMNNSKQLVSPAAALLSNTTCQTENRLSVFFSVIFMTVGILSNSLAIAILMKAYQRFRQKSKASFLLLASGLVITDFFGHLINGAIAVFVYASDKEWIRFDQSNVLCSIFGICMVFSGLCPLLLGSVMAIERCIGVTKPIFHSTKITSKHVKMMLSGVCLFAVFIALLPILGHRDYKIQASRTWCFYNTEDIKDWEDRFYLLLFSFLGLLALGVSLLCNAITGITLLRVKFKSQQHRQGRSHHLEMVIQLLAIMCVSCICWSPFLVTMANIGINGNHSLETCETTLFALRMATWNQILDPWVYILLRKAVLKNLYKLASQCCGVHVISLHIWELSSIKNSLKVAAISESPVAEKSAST
In data set [8] the target is T4, Cytosolic phospholipase A2 (Homo sapiens) (UniProt P47712).
T4 sequence (whole entry): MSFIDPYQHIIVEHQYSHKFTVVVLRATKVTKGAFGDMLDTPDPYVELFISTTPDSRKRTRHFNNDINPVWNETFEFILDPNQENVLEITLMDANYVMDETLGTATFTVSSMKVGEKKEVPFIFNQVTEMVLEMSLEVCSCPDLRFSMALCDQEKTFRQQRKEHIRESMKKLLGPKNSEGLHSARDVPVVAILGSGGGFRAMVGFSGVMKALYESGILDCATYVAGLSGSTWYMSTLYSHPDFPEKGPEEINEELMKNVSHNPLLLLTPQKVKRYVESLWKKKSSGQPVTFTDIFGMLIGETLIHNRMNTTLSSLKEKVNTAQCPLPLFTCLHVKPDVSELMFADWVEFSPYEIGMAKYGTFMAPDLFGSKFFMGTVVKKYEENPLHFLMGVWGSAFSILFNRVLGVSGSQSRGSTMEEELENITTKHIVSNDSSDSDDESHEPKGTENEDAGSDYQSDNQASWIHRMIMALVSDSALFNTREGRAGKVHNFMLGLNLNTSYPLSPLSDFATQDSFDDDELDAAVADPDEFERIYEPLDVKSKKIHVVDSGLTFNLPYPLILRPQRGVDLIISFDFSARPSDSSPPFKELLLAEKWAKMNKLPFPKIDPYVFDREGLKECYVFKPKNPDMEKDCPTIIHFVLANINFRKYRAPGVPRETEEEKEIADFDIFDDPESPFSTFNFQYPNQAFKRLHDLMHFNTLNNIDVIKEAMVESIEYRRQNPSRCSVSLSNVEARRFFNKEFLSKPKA
Kind of data set: Inhibition of cPLA2 (unknown origin) at 10 uM.

A short description of data set [9]: Inhibition of mPGES-1 in guinea pig whole blood assessed as inhibition of LPS-induced PGE2 production after overnight incubation. In kind it is tissue-based. Particulars: Cavia porcellus.
For data set [10], the target named is T5, Prostaglandin E synthase (Canis lupus familiaris, UniProt A0SYQ0).
T5 sequence (A0SYQ0 whole entry): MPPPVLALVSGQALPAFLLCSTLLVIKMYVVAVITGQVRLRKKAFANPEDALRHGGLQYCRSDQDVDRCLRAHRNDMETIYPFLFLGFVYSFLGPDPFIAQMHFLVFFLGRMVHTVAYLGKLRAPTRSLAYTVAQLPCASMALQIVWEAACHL
Kind of data set: Inhibition of mPGES-1 in dog whole blood assessed as inhibition of LPS-induced PGE2 production after overnight incubation.

A short description of data set [11]: Cmax in Sprague-Dawley rat at 10 mg/kg, po. In kind it is ADME, organism-based. Particulars: in vivo. More on the design: dose 10 mg/kg, route oral.
A short description of data set [12]: AUClast in Sprague-Dawley rat at 10 mg/kg, po. The arrangement: time 0 - last, dose 10 mg/kg, route oral. Particulars: plasma. The class given is ADME, organism-based.
Data set [13] in a line: Tmax in Sprague-Dawley rat at 10 mg/kg, po. The class given is ADME, organism-based. More on the design: dose 10 mg/kg, route oral. The conditions noted are these: in vivo.
A short description of data set [14]: Stability in human liver microsomes assessed as compound remaining after 60 mins. The conditions noted are these: read-out: Stability. The class given is ADME. On the technique in general: Microsomes from liver hold many membrane-bound enzymes, among them those of drug oxidation.
A short description of data set [15]: Stability in guinea pig liver microsomes assessed as compound remaining after 60 mins. The class given is ADME, Cavia porcellus. Particulars: read-out: Stability.

Prostaglandin G/H synthase 1 (Homo sapiens), sequence (P23219 whole entry): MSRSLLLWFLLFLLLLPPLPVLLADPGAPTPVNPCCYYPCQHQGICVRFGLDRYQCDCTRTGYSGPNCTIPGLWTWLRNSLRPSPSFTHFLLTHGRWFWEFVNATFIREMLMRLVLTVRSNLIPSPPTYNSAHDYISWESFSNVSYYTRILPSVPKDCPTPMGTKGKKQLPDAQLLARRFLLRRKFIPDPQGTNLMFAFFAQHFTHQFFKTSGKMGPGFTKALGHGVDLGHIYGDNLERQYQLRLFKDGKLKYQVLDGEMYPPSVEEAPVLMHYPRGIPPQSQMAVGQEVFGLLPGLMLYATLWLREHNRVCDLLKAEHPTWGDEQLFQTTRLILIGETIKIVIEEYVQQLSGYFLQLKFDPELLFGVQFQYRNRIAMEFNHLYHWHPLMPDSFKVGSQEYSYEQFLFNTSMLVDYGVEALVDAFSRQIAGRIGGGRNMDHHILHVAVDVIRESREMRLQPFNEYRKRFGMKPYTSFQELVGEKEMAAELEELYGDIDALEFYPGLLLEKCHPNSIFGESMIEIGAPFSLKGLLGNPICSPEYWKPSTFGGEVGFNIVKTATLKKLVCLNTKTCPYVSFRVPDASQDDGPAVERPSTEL

As a reminder, the IC50 is the concentration needed to halve the response being measured. As usually defined, the inhibition is the share of the control response that was lost under treatment. The term Cmax denotes the maximum level reached in the sampled fluid or tissue. The term AUC(0-t) denotes exposure summed from dosing to a finite time, without extrapolation to infinity. What is called Tmax is the time from dosing to the highest level. Consider `CC(C)C(=O)NCc1ccc(Cl)c(-c2nc3cc(-c4ccc(C(F)(F)F)cc4)ncc3c(=O)[nH]2)c1`, for which the IC50 at Prostaglandin E synthase [1] is 5 nM; on Prostaglandin E synthase [2], 376 nM; in data set [9], 161 nM; on Prostaglandin E synthase [10], 154 nM. For the same compound, the inhibition in data set [3] was determined as 2.74%; in [4] it was 4.87%; in data set [5], 0.02%; in [6] it was 18.7%; in data set [8], 12.1%. In [7], the Activity was 186%. Besides, the highest level in data set [11] (Cmax) was 72 ng/mL. For the same compound, in data set [12], the AUC(0-t) came out at 1230 ng·h/mL. Moreover, the time to peak (Tmax) in data set [13] worked out at 24 h. The remaining at 1 h in data set [14] was 91%; in data set [15], 87%.
